In paper PMC5218480 (PLoS ONE, 2017):

Tested on: MV-4-11 cells
Test: Gene expression microarray analysis (Affymetrix PrimeView) and GSEA
Format: cell-based, human
Design: RFU PODN (11730768_x_at) / Fold change /veh PODN (11730768_x_at) / RFU LINC00158 (11744669_a_at) / Fold change /veh LINC00158 (11744669_a_at) / RFU DUSP10 (11751237_a_at) / Fold change /veh DUSP10 (11751237_a_at) / RFU ID3 (11757404_x_at) / Fold change /veh ID3 (11757404_x_at) / RFU PLEKHG5 (11737974_s_at) / Fold change /veh PLEKHG5 (11737974_s_at) / RFU LRRC4B (11730491_at) / Fold change /veh LRRC4B (11730491_at) / RFU GIMAP4 (11747438_a_at) / Fold change /veh GIMAP4 (11747438_a_at) / RFU KRT8 (11758183_x_at) / Fold change /veh KRT8 (11758183_x_at) / RFU CNN1 (11734310_a_at) / Fold change /veh CNN1 (11734310_a_at) / RFU VPS37D (11726825_at) / Fold change /veh VPS37D (11726825_at) / RFU C10orf10 (11716522_x_at) / Fold change /veh C10orf10 (11716522_x_at) / RFU KIR2DL2 /// KIR2DL4 /// KIR2DL5A /// KIR2DL5B /// KIR2DS1 /// KIR2DS2 /// KIR2DS3 /// KIR2DS4 /// KIR3DL3 /// KIR3DL3 /// KIR3DS1 (11738374_at) / Fold change /veh KIR2DL2 /// KIR2DL4 /// KIR2DL5A /// KIR2DL5B /// KIR2DS1 /// KIR2DS2 /// KIR2DS3 /// KIR2DS4 /// KIR3DL3 /// KIR3DL3 /// KIR3DS1 (11738374_at) / RFU C1QL1 (11718748_at) / Fold change /veh C1QL1 (11718748_at) / RFU TMPRSS4 (11747572_a_at) / Fold change /veh TMPRSS4 (11747572_a_at) / RFU HAMP (11756126_x_at) / Fold change /veh HAMP (11756126_x_at) / RFU RNFT2 (11725882_a_at) / Fold change /veh RNFT2 (11725882_a_at) / RFU NR4A2 (11747474_a_at) / Fold change /veh NR4A2 (11747474_a_at) / RFU ABCC12 (11746883_a_at) / Fold change /veh ABCC12 (11746883_a_at) / RFU TMEM136 (11760407_x_at) / Fold change /veh TMEM136 (11760407_x_at) / RFU CLDN22 /// WWC2 (11732394_at) / Fold change /veh CLDN22 /// WWC2 (11732394_at) / RFU HLA-DPB1 (11760878_x_at) / Fold change /veh HLA-DPB1 (11760878_x_at) / RFU SPINT1 (11716480_a_at) / Fold change /veh SPINT1 (11716480_a_at) / RFU GAP43 (11754022_s_at) / Fold change /veh GAP43 (11754022_s_at) / RFU A4GNT (11735810_at) / Fold change /veh A4GNT (11735810_at) / RFU PRB3 (11715151_x_at) / Fold change /veh PRB3 (11715151_x_at) / RFU TUBB4B (11761932_at) / Fold change /veh TUBB4B (11761932_at) / RFU CAPN14 (11732068_a_at) / Fold change /veh CAPN14 (11732068_a_at) / RFU TMCC2 (11721928_a_at) / Fold change /veh TMCC2 (11721928_a_at) / RFU IRGQ (11745062_a_at) / Fold change /veh IRGQ (11745062_a_at) / RFU FAM174B (11720279_a_at) / Fold change /veh FAM174B (11720279_a_at) / RFU TMPRSS4 (11748680_a_at) / Fold change /veh TMPRSS4 (11748680_a_at) / RFU FAM212B (11763350_a_at) / Fold change /veh FAM212B (11763350_a_at) / RFU PLEKHG5 (11743358_a_at) / Fold change /veh PLEKHG5 (11743358_a_at) / RFU ZSCAN30 (11745921_a_at) / Fold change /veh ZSCAN30 (11745921_a_at) / RFU CMKLR1 (11741424_a_at) / Fold change /veh CMKLR1 (11741424_a_at) / RFU LOC101060620 /// MAPK8IP1 (11723275_at) / Fold change /veh LOC101060620 /// MAPK8IP1 (11723275_at) / RFU SPTSSB (11747773_x_at) / Fold change /veh SPTSSB (11747773_x_at) / RFU PRSS12 (11739890_at) / Fold change /veh PRSS12 (11739890_at) / RFU BIN1 (11741810_x_at) / Fold change /veh BIN1 (11741810_x_at) / RFU WNT11 (11732464_a_at) / Fold change /veh WNT11 (11732464_a_at) / RFU C10orf10 (11716521_a_at) / Fold change /veh C10orf10 (11716521_a_at) / RFU C5orf56 (11738089_at) / Fold change /veh C5orf56 (11738089_at) / RFU CYB561 (11721691_x_at) / Fold change /veh CYB561 (11721691_x_at) / RFU ANKRD19P (11752326_a_at) / Fold change /veh ANKRD19P (11752326_a_at) / RFU OR2T12 /// OR2T33 /// OR2T8 (11738714_s_at) / Fold change /veh OR2T12 /// OR2T33 /// OR2T8 (11738714_s_at) / RFU VCAN (11748164_a_at) / Fold change /veh VCAN (11748164_a_at) / RFU JSRP1 (11732532_at) / Fold change /veh JSRP1 (11732532_at) / RFU KRTAP10-11 (11738290_x_at) / Fold change /veh KRTAP10-11 (11738290_x_at) / RFU MYO3A (11730013_a_at) / Fold change /veh MYO3A (11730013_a_at) / RFU EBF3 (11725865_a_at) / Fold change /veh EBF3 (11725865_a_at) / RFU CAMK2N1 (11719241_x_at) / Fold change /veh CAMK2N1 (11719241_x_at) / RFU C5orf56 (11738088_a_at) / Fold change /veh C5orf56 (11738088_a_at) / RFU OLFML3 (11715873_a_at) / Fold change /veh OLFML3 (11715873_a_at) / RFU LOC100653217 /// NTM (11731650_a_at) / Fold change /veh LOC100653217 /// NTM (11731650_a_at) / RFU MAPK11 (11762145_a_at) / Fold change /veh MAPK11 (11762145_a_at) / RFU FIZ1 (11724087_x_at) / Fold change /veh FIZ1 (11724087_x_at) / RFU OASL (11726364_x_at) / Fold change /veh OASL (11726364_x_at) / RFU SOX15 (11748057_x_at) / Fold change /veh SOX15 (11748057_x_at) / RFU CD79A (11719716_a_at) / Fold change /veh CD79A (11719716_a_at) / RFU HIST1H1D (11736915_at) / Fold change /veh HIST1H1D (11736915_at) / RFU CASKIN2 (11723855_a_at) / Fold change /veh CASKIN2 (11723855_a_at) / RFU LOC730098 (11760151_x_at) / Fold change /veh LOC730098 (11760151_x_at) / RFU OR4N2 (11742367_at) / Fold change /veh OR4N2 (11742367_at) / RFU PRRT2 (11749266_a_at) / Fold change /veh PRRT2 (11749266_a_at) / RFU SNX32 (11753110_a_at) / Fold change /veh SNX32 (11753110_a_at) / RFU CDHR5 (11726645_a_at) / Fold change /veh CDHR5 (11726645_a_at) / RFU RCAN1 (11760418_a_at) / Fold change /veh RCAN1 (11760418_a_at) / RFU FAM167A (11723789_a_at) / Fold change /veh FAM167A (11723789_a_at) / RFU FAM26E (11764081_at) / Fold change /veh FAM26E (11764081_at) / RFU ISYNA1 (11749810_s_at) / Fold change /veh ISYNA1 (11749810_s_at) / RFU ACY1 (11761880_at) / Fold change /veh ACY1 (11761880_at) / RFU 11764098_at / Fold change /veh 11764098_at / RFU SAMD14 (11745864_x_at) / Fold change /veh SAMD14 (11745864_x_at) / RFU NPB (11741838_a_at) / Fold change /veh NPB (11741838_a_at) / RFU TMPRSS6 (11731388_a_at) / Fold change /veh TMPRSS6 (11731388_a_at) / RFU KRTAP10-2 (11738614_at) / Fold change /veh KRTAP10-2 (11738614_at) / RFU ARHGAP8 /// PRR5-ARHGAP8 (11727945_x_at) / Fold change /veh ARHGAP8 /// PRR5-ARHGAP8 (11727945_x_at) / RFU KRTAP5-7 /// NADSYN1 (11734609_at) / Fold change /veh KRTAP5-7 /// NADSYN1 (11734609_at) / RFU RASL12 (11751679_a_at) / Fold change /veh RASL12 (11751679_a_at) / RFU CDKN2B (11736163_a_at) / Fold change /veh CDKN2B (11736163_a_at) / RFU PRF1 (11729649_at) / Fold change /veh PRF1 (11729649_at) / RFU, ZNF638 /// ZNF638-IT1 / Fold change vs veh, ZNF638 /// ZNF638-IT1 / RFU, PANK3 / Fold change vs veh, PANK3 / RFU, SH3YL1 / Fold change vs veh, SH3YL1 / RFU, ZEB2 / Fold change vs veh, ZEB2 / RFU, NRIP1 / Fold change vs veh, NRIP1 / RFU, PTTG1IP / Fold change vs veh, PTTG1IP / RFU, CAPN2 / Fold change vs veh, CAPN2 / RFU, MED14 / Fold change vs veh, MED14 / RFU, SNORA58 / Fold change vs veh, SNORA58 / RFU, C1orf63 / Fold change vs veh, C1orf63 / RFU, LRRFIP1 / Fold change vs veh, LRRFIP1 / RFU, NDUFAF7 / Fold change vs veh, NDUFAF7 / RFU, SLC12A2 / Fold change vs veh, SLC12A2 / RFU, IBTK / Fold change vs veh, IBTK / RFU, ESF1 / Fold change vs veh, ESF1 / Fold change vs veh, TMEM50B / RFU, TAOK1 / Fold change vs veh, TAOK1 / RFU, ACBD3 / Fold change vs veh, ACBD3 / RFU, TMA16 / Fold change vs veh, TMA16 / RFU, RWDD3 / Fold change vs veh, RWDD3 / RFU, BCAT1 / Fold change vs veh, BCAT1 / RFU, EDEM3 / Fold change vs veh, EDEM3 / RFU, TMEM33 / Fold change vs veh, TMEM33 / RFU, WDR75 / Fold change vs veh, WDR75 / RFU, AHCTF1 / Fold change vs veh, AHCTF1 / RFU, TFRC / Fold change vs veh, TFRC / RFU, ZDHHC17 / Fold change vs veh, ZDHHC17 / RFU, NOM1 / Fold change vs veh, NOM1 / RFU, ARL8B / Fold change vs veh, ARL8B / RFU, ZBTB11 / Fold change vs veh, ZBTB11 / RFU, TAMM41 / Fold change vs veh, TAMM41 / RFU, KIAA1704 /// LOC100996395 / Fold change vs veh, KIAA1704 /// LOC100996395 / RFU, ING1 / Fold change vs veh, ING1 / RFU, TRMT61B / Fold change vs veh, TRMT61B / RFU, FUBP3 / Fold change vs veh, FUBP3 / RFU, TP53 / Fold change vs veh, TP53 / RFU, TNKS2 / Fold change vs veh, TNKS2 / RFU, ZFP14 / Fold change vs veh, ZFP14 / RFU, ACTR2 / Fold change vs veh, ACTR2 / RFU, PPP3R1 / Fold change vs veh, PPP3R1 / RFU, PIK3R1 / Fold change vs veh, PIK3R1 / RFU, HNRNPA1 / Fold change vs veh, HNRNPA1 / RFU, RNF170 / Fold change vs veh, RNF170 / RFU, ZNF28 / Fold change vs veh, ZNF28 / RFU, RNGTT / Fold change vs veh, RNGTT / RFU, OGT / Fold change vs veh, OGT / RFU, BRD1 / Fold change vs veh, BRD1 / RFU, MARS / Fold change vs veh, MARS / RFU, ZNF655 / Fold change vs veh, ZNF655 / RFU, FAHD1 / Fold change vs veh, FAHD1 / RFU, BDP1 / Fold change vs veh, BDP1 / RFU, LRRCC1 / Fold change vs veh, LRRCC1 / RFU, ARID1A / Fold change vs veh, ARID1A / RFU, ZNF146 / Fold change vs veh, ZNF146 / RFU, ZNF330 / Fold change vs veh, ZNF330 / RFU, GPN3 / Fold change vs veh, GPN3 / RFU, C9orf123 / Fold change vs veh, C9orf123 / RFU, N4BP2L2 / Fold change vs veh, N4BP2L2 / RFU, ARFIP1 / Fold change vs veh, ARFIP1 / RFU, FAM179B / Fold change vs veh, FAM179B / RFU, BCL10 / Fold change vs veh, BCL10 / RFU, UHRF1BP1L / Fold change vs veh, UHRF1BP1L / RFU, BET1 / Fold change vs veh, BET1 / RFU, CNOT2 / Fold change vs veh, CNOT2 / RFU, ZNF268 / Fold change vs veh, ZNF268 / Fold change vs veh, ZNF507 / RFU, DGCR2 / Fold change vs veh, DGCR2 / RFU, WDSUB1 / Fold change vs veh, WDSUB1 / Fold change vs veh, HSP90B1 /// MIR3652 / RFU, ADSS / Fold change vs veh, ADSS / RFU, GK / Fold change vs veh, GK / RFU, ZNF148 / Fold change vs veh, ZNF148 / RFU, TAF9 / Fold change vs veh, TAF9 / RFU, SLC1A5 / Fold change vs veh, SLC1A5 / RFU, SLMO2 / Fold change vs veh, SLMO2 / RFU, ABCC4 / Fold change vs veh, ABCC4 / RFU, LOC101060439 /// RAP1B / Fold change vs veh, LOC101060439 /// RAP1B / RFU, RFX7 / Fold change vs veh, RFX7 / RFU, GTPBP10 / Fold change vs veh, GTPBP10 / RFU, CNEP1R1 / Fold change vs veh, CNEP1R1 / RFU, BIVM-ERCC5 /// ERCC5 / Fold change vs veh, BIVM-ERCC5 /// ERCC5 / RFU, ILF3 / Fold change vs veh, ILF3 / RFU 11762660_at / Fold change /veh 11762660_at / RFU VCAN (11757783_s_at) / Fold change /veh VCAN (11757783_s_at) / RFU DDX43 (11728927_at) / Fold change /veh DDX43 (11728927_at) / RFU KRT8 (11758188_x_at) / Fold change /veh KRT8 (11758188_x_at) / RFU NKD1 (11759106_at) / Fold change /veh NKD1 (11759106_at) / RFU SRD5A1 (11742802_a_at) / Fold change /veh SRD5A1 (11742802_a_at) / RFU TPSAB1 /// TPSB2 (11721975_s_at) / Fold change /veh TPSAB1 /// TPSB2 (11721975_s_at) / RFU GSTM3 (11746129_a_at) / Fold change /veh GSTM3 (11746129_a_at) / RFU IL23R (11737362_x_at) / Fold change /veh IL23R (11737362_x_at) / RFU TMEM51 (11727254_a_at) / Fold change /veh TMEM51 (11727254_a_at) / RFU PIWIL2 (11732686_x_at) / Fold change /veh PIWIL2 (11732686_x_at) / RFU ORM1 (11744905_x_at) / Fold change /veh ORM1 (11744905_x_at) / RFU CCDC152 (11743942_at) / Fold change /veh CCDC152 (11743942_at) / RFU ECM1 (11717891_a_at) / Fold change /veh ECM1 (11717891_a_at) / RFU IL23R (11748794_a_at) / Fold change /veh IL23R (11748794_a_at) / RFU TNFAIP8L3 (11732012_x_at) / Fold change /veh TNFAIP8L3 (11732012_x_at) / RFU MBOAT4 (11741988_at) / Fold change /veh MBOAT4 (11741988_at) / RFU 11764193_at / Fold change /veh 11764193_at / RFU TMEM53 (11763286_at) / Fold change /veh TMEM53 (11763286_at) / RFU MAGEB2 (11727129_at) / Fold change /veh MAGEB2 (11727129_at) / RFU TMEM200A (11744735_a_at) / Fold change /veh TMEM200A (11744735_a_at) / RFU CCDC152 (11751479_a_at) / Fold change /veh CCDC152 (11751479_a_at) / RFU FAM211A (11726209_a_at) / Fold change /veh FAM211A (11726209_a_at) / RFU RGS16 (11746705_a_at) / Fold change /veh RGS16 (11746705_a_at) / RFU VCAN (11755009_s_at) / Fold change /veh VCAN (11755009_s_at) / RFU RHOB (11743442_s_at) / Fold change /veh RHOB (11743442_s_at) / RFU RGS16 (11720943_a_at) / Fold change /veh RGS16 (11720943_a_at) / RFU RGS16 (11720944_at) / Fold change /veh RGS16 (11720944_at) / RFU, VPS4B / Fold change vs veh, VPS4B / RFU, CREB1 / Fold change vs veh, CREB1 / RFU, DNAJC13 / Fold change vs veh, DNAJC13 / RFU, GNAQ / Fold change vs veh, GNAQ / RFU, CDK5R1 / Fold change vs veh, CDK5R1 / RFU, ZRANB3 / Fold change vs veh, ZRANB3 / RFU, CUL4A / Fold change vs veh, CUL4A / RFU, CCNY / Fold change vs veh, CCNY / RFU, UFL1 / Fold change vs veh, UFL1 / RFU, COG3 / Fold change vs veh, COG3 / RFU, DIAPH2 / Fold change vs veh, DIAPH2 / RFU, SKA2 / Fold change vs veh, SKA2 / RFU, AFF3 / Fold change vs veh, AFF3 / RFU, LMF1 / Fold change vs veh, LMF1 / RFU, IPO11 / Fold change vs veh, IPO11 / RFU, DFFB / Fold change vs veh, DFFB / RFU, FOXP1 / Fold change vs veh, FOXP1 / RFU, CARD8 / Fold change vs veh, CARD8 / RFU, STRN3 / Fold change vs veh, STRN3 / RFU, ADK / Fold change vs veh, ADK / RFU, RASSF2 / Fold change vs veh, RASSF2 / RFU, WIPF1 / Fold change vs veh, WIPF1 / RFU, LARP1B / Fold change vs veh, LARP1B / RFU, RASA1 / Fold change vs veh, RASA1 / RFU, RB1 / Fold change vs veh, RB1 / RFU, PPFIA1 / Fold change vs veh, PPFIA1 / RFU, MAT2A / Fold change vs veh, MAT2A / RFU, CCT5 / Fold change vs veh, CCT5 / RFU, WDR92 / Fold change vs veh, WDR92 / RFU, CUX1 / Fold change vs veh, CUX1 / RFU, TTC7A / Fold change vs veh, TTC7A / RFU, TMEM135 / Fold change vs veh, TMEM135 / RFU, DEPTOR / Fold change vs veh, DEPTOR / RFU, CPM / Fold change vs veh, CPM / RFU, DNAJB6 / Fold change vs veh, DNAJB6 / RFU, CACNA2D3 / Fold change vs veh, CACNA2D3 / RFU, DTX4 / Fold change vs veh, DTX4 / RFU, TFCP2 / Fold change vs veh, TFCP2 / RFU, GMCL1 /// GMCL1P1 / Fold change vs veh, GMCL1 /// GMCL1P1 / RFU, AEBP2 / Fold change vs veh, AEBP2 / RFU, SNHG1 /// SNORD22 /// SNORD25 /// SNORD26 /// SNORD27 /// SNORD28 /// SNORD29 /// SNORD31 / Fold change vs veh, SNHG1 /// SNORD22 /// SNORD25 /// SNORD26 /// SNORD27 /// SNORD28 /// SNORD29 /// SNORD31 / Fold change (Aza/veh), C12orf56 (ProbeSet 11735607_a_at) / Fold change (ACY-1035/veh), C12orf56 (ProbeSet 11735607_a_at) / Fold change (Aza/veh), FGFR1OP (ProbeSet 11751329_s_at) / Fold change (ACY-1035/veh), FGFR1OP (ProbeSet 11751329_s_at) / Fold change (Aza/veh), VPS36 (ProbeSet 11739960_a_at) / Fold change (ACY-1035/veh), VPS36 (ProbeSet 11739960_a_at) / RFU SYPL1 (11715823_x_at) / Fold change /veh SYPL1 (11715823_x_at) / RFU IGFBP7 (11715501_s_at) / Fold change /veh IGFBP7 (11715501_s_at) / RFU REEP3 (11722064_at) / Fold change /veh REEP3 (11722064_at) / RFU IGLL1 (11728026_x_at) / Fold change /veh IGLL1 (11728026_x_at): dose or concentration left out as unconfirmed
Conditions: ProbeSet 11740781_a_at; LIST B

## Nc1ncn([C@@H]2O[C@H](CO)[C@@H](O)[C@H]2O)c(=O)n1 [azacitidine]
  RFU, ILF3: 260.31 RFU
